Columns and labels:
B16 [1] = assay: Inhibition of melanogenesis in mouse B16 cells; assay type: functional, cell-based
B16 [2] = assay: Inhibition of melanogenesis in mouse B16 cells at 10 uM; assay type: functional
B16 [3] = assay: Selectivity ratio for inhibition of melanogenesis in mouse B16 cell of compound to N-phenylthiourea; assay type: functional

Row | Compound | IC50 (B16 [1]) [µM] | inhibition at 10 µM (B16 [2]) [%] | Ratio (B16 [3])
1 | NC(=S)NCc1ccccc1 | > 10 | < 10 | 
2 | NC(=S)NCCc1ccccc1 | > 10 | < 10 | 
3 | NC(=S)NCCCc1ccccc1 | > 10 | < 10 | 
4 | NC(=S)NCCCCc1ccccc1 | > 10 | < 10 | 
5 | Cc1cccc(NC(N)=S)c1 | 5 | 78 | 
6 | Cc1ccccc1NC(N)=S | > 10 | < 10 | 
7 | CC(C)(C)c1ccccc1NC(N)=S | > 10 | < 10 | 
8 | COc1ccccc1NC(N)=S | > 10 | < 10 | 
9 | NC(=S)N/N=C/c1ccccc1 [PHENYLTHIOSEMICARBAZONE] | > 10 | < 10 | 
10 | NC(=S)Nc1ccccc1 [PHENYLTHIOUREA] | 5.4 | 84 | 

The next lines start with results.

Row | IC50 (B16 [1]) [µM] | Compound | inhibition at 10 µM (B16 [2]) [%] | Ratio (B16 [3])
11 | > 10 | CCc1ccccc1NC(N)=S | < 10 | 
12 | > 10 | NC(=S)Nc1ccccc1CO | < 10 | 
13 | 5.5 | Cc1ccc(NC(N)=S)cc1 | 83 | 
14 | 4.9 | CCc1ccc(NC(N)=S)cc1 | 88 | 
15 | 3.7 | CC(C)(C)c1ccc(NC(N)=S)cc1 | 95 | 
16 | 4 | NC(=S)Nc1ccc(Cl)cc1 | 84 | 
17 | 6.3 | NC(=S)Nc1ccc(O)cc1 | 70 | 
18 | 5.6 | COc1ccc(NC(N)=S)cc1 | 80 | 
19 | 6.8 | Cc1ccc(/C=N/NC(N)=S)cc1 | 64 | 
20 | 3.4 | CCc1ccc(/C=N/NC(N)=S)cc1 | 100 | 2

Source: ChEMBL document CHEMBL1157910, “Structural requirement(s) of N-phenylthioureas and benzaldehyde thiosemicarbazones as inhibitors of melanogenesis in melanoma B 16 cells” (Bioorg Med Chem Lett, 2010)
